The text below walks through data of US12497349B2, “Salts of tranexamic acid esters” (Actera Ingredients, Inc., priority 2019, dated 2025).

The nature of the data set: Viscosity by vertical falling sphere method. It is filed as physicochemical. The note with it: room temperature 25±1° C.; 1.0 and 5.0 wt. % in water; compared to the tranexamate hydrochloride salt; FIG. 2. How it is done: Compositions of tranexamate ester salts with differing counter-ions as shown in Table 5 were prepared as follows. 1) Ingredients A to C were combined based on the weight ratios in Table 5. 2) The mixture was heated with stirring to 80±5° C. until all solids were dissolved. 3) The homogeneous mixture was removed from the heat and allowed to cool to room temperature (25±5° C.).
The viscosity at room temperature (25±1° C.) of Examples 13-16 was determined by the method of the vertical falling sphere using the equation μ=[2 (ρs−ρl) g a^2 ]/9v, where μ=dynamic viscosity, ρs=density of the sphere, ρl=density of the test material (Examples 13-16), g=standard gravity, a=radius of the sphere, and v=velocity of the sphere.
Results are represented in FIG. 2. […] Additionally, the tranexamate sulfonate salt yielded stable and homogeneous compositions not observed with the tranexamate hydrochloride salt (see Examples 1 to 12).

For the compound `CCCCCCCCCCCCCCCCOC(=O)C1CCC(CN)CC1.CS(=O)(=O)O` (stereo not shown) [tranexamate sulfonate salt, Cetyl tranexamate mesylate], the Viscosity entry is listed as “higher viscosity with increasing concentration”.
